Assay results reported in patent US20120020946A1, “Methods for Inactivating Viruses” (priority 2009, published 2012).

Experiments:
[1] = test system: Poliovirus Sabin (Type 2H.010704); format: cell-based
[2] = test system: RD cell line (human rhabdomyosarcoma)

Compound: OCl [Hypochlorite, Sodium hypochlorite]
- infectivity score, virus added [1]: N
- cytotoxicity score, no virus added [2]: N
